This is an account of results in PubChem BioAssay (NCI).

What all share (experiment): NCI-60 cell line screen, 48 h
For assay [1], the system named is MDA-N.
Assay [2] deals with DMS 114 small cell lung.
Assay [3] relates to DMS 273 small cell lung.
Assay [4] deals with HOP-18 NSCLC.
Assay [5] concerns M19-MEL melanoma.
Assay [6] has as its system XF 498 CNS.
The subject of assay [7] is RXF-631 renal.

Several values for one entry are separate records, joined by “and”; a condition that tells them apart may be missing. Identical values can stand only once.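 1) Cells in 96-well plates. 2) Compound, 48 h, 5 concentrations. 3) Linear interpolation between surrounding doses. 4) Unreached endpoint = highest concentration. Here, GI50 denotes the concentration required for 50% inhibition of growth. TGI: total growth inhibition.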

`CCOC(=O)c1cc2cc3c4c(c2oc1=O)CCCN4CCC3`: in assay [1], the TGI is greater than 100 µM.
The same measure, in the same setting: the result for `COc1cc(C2SCCCCCCCCCCSC(c3ccc(O)c(OC)c3)SCCCCCCCCCCS2)ccc1O` (stereo not given) reads greater than 100 µM; that for `O=C1CC2C(=O)c3ccccc3CC2c2ccccc21` (stereo not given), greater than 100 µM.
Take `COC12CCC(=O)C=C1c1ccccc1N2C(C)=O` (stereo not given): the TGI in assay [2], in assay [3], in assay [4], in assay [5] and in assay [6] was greater than 100 µM each time.
As for `C=CCNc1nc2c(s1)C(=O)c1ccccc1C2=O`, the TGI in assay [2] was 3.27 µM; in assay [3] it was 28.2 µM; in assay [4] it was 23.1 µM; in assay [5] it was 3.22 µM; in assay [1], 3.28 µM; in assay [6], 34.8 µM.
Regarding `COc1ccc(NC(=O)CC2SC(=Nc3ccccc3C)NC2=O)c([N+](=O)[O-])c1` (stereo not given), the TGI in assay [3], in assay [5] and in assay [6] was greater than 100 µM in each case.
Take `CCCNC(=O)C1C(=O)C(=O)N(CCC)C1=O` (stereo not given): the TGI in assay [2], in assay [3], in assay [4], in assay [5] and in assay [6] was greater than 100 µM in each case.
`Cc1[nH]nc(C(F)(F)F)c1N=NN(C)C` registered a TGI in assay [1] greater than 100 µM.
`CCNC(=O)COc1ccc(Br)cc1Br`: the TGI in assay [2], in assay [3], in assay [4], in assay [5] and in assay [7] was greater than 100 µM throughout.
As for `O=c1/c(=C/c2ccccc2[N+](=O)[O-])sc2nc3ccccc3n12`, the TGI in assay [2] was 36.8 µM; in assay [3], greater than 46.4 µM; in assay [4] it was greater than 46.4 µM; in assay [5], greater than 46.4 µM; in assay [7] it was greater than 46.4 µM; in assay [6], greater than 59.3 µM.
For `C#Cc1cccc(N2C(=O)c3c(c(-c4ccccc4)c(-c4ccc(Cc5ccc(-c6c(-c7ccccc7)c7c(c(-c8ccccc8)c6-c6ccccc6)C(=O)N(c6cccc(C#C)c6)C7=O)cc5)cc4)c(-c4ccccc4)c3-c3ccccc3)C2=O)c1`, the TGI in assay [2] was greater than 100 µM; in assay [3], greater than 100 µM; in assay [5] it was 52 µM; in assay [6], 72.7 µM.
Take `CC1=CC(=O)CC2(C)CC[C@@H]3C[C@]12OC3(C)C` (stereo not given in full): the TGI in assay [2], in assay [3], in assay [4], in assay [5] and in assay [6] was greater than 100 µM in each case.
For the molecule `CC1CCC2(NC1)OC1CC3C4CC=C5CC(O)CCC5(C)C4CCC3(C)C1C2C` (stereo not given), in assay [1], the GI50 was 31.1 µM and 12.2 µM; the TGI is greater than 100 µM.
In turn, `O=C(O)c1ccc(CI)cc1` registered a TGI in assay [1] of 34.4 µM.
Regarding `O=C(CCC(=O)Nc1ccc(Cl)c(Cl)c1)CC(=O)c1ccc(Br)cc1`, the TGI in assay [2], in assay [4], in assay [5], in assay [7] and in assay [6] was greater than 100 µM each time.
For `CC1=C[C@H]2c3c([nH]c4ccccc34)C(c3c[nH]c4ccccc34)[C@H]2CC1` (stereo not given in full), the TGI in assay [2] stood at 20.5 µM; in assay [3] it was 15.8 µM; in assay [4] it was 24.1 µM; in assay [5], 22.9 µM; in assay [7] it was 14.1 µM.
In the case of `N#Cc1ccccc1C(Cl)(Cl)c1cnccn1`, the TGI in assay [2] was 43 µM; in assay [3], greater than 100 µM; in assay [4], greater than 100 µM; in assay [5] it was greater than 100 µM; in assay [6], 33.8 µM.
Turning to `NCCSSCCN`, the TGI in assay [2], in assay [3], in assay [4], in assay [5], in assay [1] and in assay [7] was greater than 100 µM in each case. The same molecule came in with a TGI in assay [6] greater than 100 µM.
For `CC[n+]1oc(C(=O)c2ccc(Cl)cc2)c(-c2ccccc2)c1-c1ccccc1.[Cl][Fe]([Cl])([Cl])[Cl]`, in assay [1], the GI50 was 28.7 µM and the TGI is greater than 100 µM.
Regarding `CC(=O)N/N=C1\CC(C)(C)C2CCC1C2` (stereo not given), the TGI in assay [2], in assay [3], in assay [5] and in assay [6] was greater than 100 µM throughout.
With `COC/C=C\COC`, the TGI in assay [2], in assay [3], in assay [4], in assay [5], in assay [7] and in assay [6] was greater than 100 µM throughout.
For the molecule `N/N=C1\C(=O)N(C2CCCCCC2)C(=O)C1C(=O)NC1CCCCCC1` (stereo not given), the TGI in assay [4] was 91.4 µM; in assay [5] it was greater than 100 µM.
As to `CCc1ccc(NC(=O)NC(=O)c2ccccc2[N+](=O)[O-])cc1Oc1ncc(Cl)cn1`, the TGI in assay [2], in assay [4] and in assay [5] was greater than 100 µM in each case.
On to `CN(C)CCNc1ccc(CO)c2sc3ccc(O)cc3c(=O)c12`, for which the TGI in assay [2] came out at 16.5 µM; in assay [3], 9.97 µM; in assay [4] it was 29.6 µM; in assay [5], 15.9 µM; in assay [1] it was 3.7 µM; in assay [6] it was 19.9 µM.
On to `CC(Oc1ccc2c(-c3ccccc3)cc(=O)oc2c1)C(=O)O` (stereo not given), for which the TGI in assay [2], in assay [4], in assay [5] and in assay [6] was greater than 100 µM throughout.
As for `CCC(=O)c1c(NOC2OCC(OC(C)=O)C(OC(C)=O)C2OC(C)=O)nc(OC)n(C)c1=O` (stereo not given), the TGI in assay [2], in assay [3], in assay [5] and in assay [6] was greater than 100 µM throughout.
For the molecule `COc1ccc(NC(=O)/C(=C/c2ccccc2)C(C)=O)cc1`, the TGI in assay [2] worked out at 30.7 µM; in assay [3], 30.8 µM; in assay [4], 28.2 µM; in assay [5], 29.9 µM; in assay [7], 31.2 µM; in assay [6], 30.6 µM.
For the molecule `CCC1CC2C(=O)N(c3ccccc3)C(=O)C2c2[nH]c3ccccc3c21` (stereo not given), the TGI came to 35.7 µM in assay [2]; 45.8 µM in assay [4]; 79.9 µM in assay [5]; 29.4 µM in assay [7]; 42 µM in assay [6].
With `O=C1c2ccccc2-[n+]2ccc3c([nH]c4ccccc43)c21`, the TGI in assay [1] came out at 0.318 µM.
As for `CC1/C=C/[C@@]2(C)CCC(C(C)(C)O)C2C(O)C[C@](C)(O)/C=C/C1` (stereo not given in full), the TGI in assay [2], in assay [3], in assay [4] and in assay [6] was greater than 100 µM in each case.
Take `COc1ccc(OC)c(NC(=O)CCC/C(CC(=O)c2ccc(O)c(OC)c2)=N\Nc2nnc(C)n2N)c1`: the TGI in assay [2], in assay [3], in assay [4], in assay [5] and in assay [6] was greater than 100 µM each time.
For the molecule `CC(C)(C)c1cc(C(O)(C(F)(F)F)C(F)(F)F)c2c(c1)C(C(F)(F)F)(C(F)(F)F)OC(C)(C(C)(C)C)N2` (stereo not given), the TGI in assay [2] stood at 8.64 µM; in assay [3], 10.8 µM; in assay [5] it was 9.73 µM; in assay [6], 4.25 µM.
Consider `Cc1ccccc1NC(=O)c1cc(-c2ccc([N+](=O)[O-])cc2)nc(=S)[nH]1`, for which the TGI in assay [2], in assay [3], in assay [4] and in assay [7] was greater than 100 µM each time.
Consider `Cc1ccc(NC(=O)CCc2nc(N)nc(N)c2-c2ccccc2)cc1C`, for which the TGI in assay [2], in assay [3], in assay [4], in assay [5], in assay [7] and in assay [6] was greater than 100 µM in each case.
For the molecule `C=C(CC(NC(=O)c1ccc(C(CC)Cc2cnc3nc(N)nc(N)c3n2)cc1)C(=O)O)C(=O)O` (stereo not given), the TGI in assay [3] was greater than 100 µM.
